# According to PubChem BioAssay AID1845209 (Molecular Pharmacology Branch, DTP, NCI, 2023):
# Tested on: NCI-H211 tumor spheroids, viability percent test/control
# Assay: Anticancer human tumor NCI-H211 cell line growth inhibition;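 also: spheroids exposed to agents for seven days before readout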
# Conditions: spheroids with HUVEC and MSC; for IC50: curve of first compound; for viability, T/C: stronger effect = lower value
# In short: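 Single agents and combinations were tested on spheroids built from tumor cells plus HUVEC and hMSC, at half-log dilutions starting at or near clinical Cmax, else 10 microM; final DMSO 0.25% (v/v).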
# [1] = second compound 1 µM, first compound 0.0316 µM
# [2] = second compound 1 µM, first compound 0.1 µM
# [3] = second compound 1 µM, first compound 0.316 µM
# [4] = second compound 1 µM, first compound 1 µM
# [5] = second compound 1 µM, first compound 3.16 µM
# [6] = second compound 1 µM, first compound 10 µM
# [7] = second compound 3.16 µM, first compound 0.0316 µM
# [8] = second compound 3.16 µM, first compound 0.1 µM
# [9] = second compound 3.16 µM, first compound 0.316 µM
# [10] = second compound 3.16 µM, first compound 1 µM
# [11] = second compound 3.16 µM, first compound 3.16 µM
# [12] = second compound 3.16 µM, first compound 10 µM
# [13] = second compound 10 µM, first compound 0.0316 µM
# [14] = second compound 10 µM, first compound 0.1 µM
# [15] = second compound 10 µM, first compound 0.316 µM
# [16] = second compound 10 µM, first compound 1 µM
# [17] = second compound 10 µM, first compound 3.16 µM
# [18] = second compound 10 µM, first compound 10 µM
# [19] = second compound 31.6 µM, first compound 0.0316 µM
# [20] = second compound 31.6 µM, first compound 0.1 µM
# [21] = second compound 31.6 µM, first compound 0.316 µM
# [22] = second compound 31.6 µM, first compound 1 µM
# [23] = second compound 31.6 µM, first compound 3.16 µM
# [24] = second compound 31.6 µM, first compound 10 µM
# [25] = second compound 100 µM, first compound 0.0316 µM
# [26] = second compound 100 µM, first compound 0.1 µM
# [27] = second compound 100 µM, first compound 0.316 µM
# [28] = second compound 100 µM, first compound 1 µM
# [29] = second compound 100 µM, first compound 3.16 µM
# [30] = second compound 100 µM, first compound 10 µM
Structure (SMILES),IC50 (second compound 1 µM) [µM],IC50 (second compound 3.16 µM) [µM],IC50 (second compound 10 µM) [µM],IC50 (second compound 31.6 µM) [µM],IC50 (second compound 100 µM) [µM],"viability, T/C [1] [%]","viability, T/C [2] [%]","viability, T/C [3] [%]","viability, T/C [4] [%]","viability, T/C [5] [%]","viability, T/C [6] [%]","viability, T/C [7] [%]","viability, T/C [8] [%]","viability, T/C [9] [%]","viability, T/C [10] [%]","viability, T/C [11] [%]","viability, T/C [12] [%]","viability, T/C [13] [%]","viability, T/C [14] [%]","viability, T/C [15] [%]",also measured
CC1COCCN1c1cc(-c2ccnn2C)c2ccnc(-c3ccn[nH]3)c2n1 (stereo not given) + Cn1nnc2c(C(N)=O)ncn2c1=O,< 0.0316,< 0.0316,< 0.0316,< 0.0316,< 0.0316,11.4,1.45,0.83,0.74,0.72,1.43,9.67,1.34,0.86,0.68,0.72,1.44,6.59,0.88,0.79,"viability, T/C [16]: 0.62%; viability, T/C [17]: 0.67%; viability, T/C [18]: 1.16%; viability, T/C [19]: 1.39%; viability, T/C [20]: 1.09%; viability, T/C [21]: 0.74%; viability, T/C [22]: 0.59%; viability, T/C [23]: 0.66%; viability, T/C [24]: 1.11%; viability, T/C [25]: 1.19%; viability, T/C [26]: 1.1%; viability, T/C [27]: 0.95%; viability, T/C [28]: 0.67%; viability, T/C [29]: 0.65%; viability, T/C [30]: 1.12%"
COc1cc(C)[nH]c(=O)c1CN1CCc2c(Cl)cc(C(OC)C3COC3)c(Cl)c2C1=O (stereo not given) + Cn1nnc2c(C(N)=O)ncn2c1=O,> 10,> 10,> 10,1.33,< 0.0316,92.7,90.4,90.6,82.7,81.3,72.8,92.6,99.3,90,82.3,70.2,81.5,99.8,98.7,86.6,"viability, T/C [16]: 86.5%; viability, T/C [17]: 70.2%; viability, T/C [18]: 56.1%; viability, T/C [19]: 56.4%; viability, T/C [20]: 54.6%; viability, T/C [21]: 59.6%; viability, T/C [22]: 56.3%; viability, T/C [23]: 30.8%; viability, T/C [24]: 30.8%; viability, T/C [25]: 31.5%; viability, T/C [26]: 33.4%; viability, T/C [27]: 19.6%; viability, T/C [28]: 13.8%; viability, T/C [29]: 12.6%; viability, T/C [30]: 12%"
Cc1cc(C)c(CNC(=O)c2cc(-c3ccc(CN4CCOCC4)cc3)cc3c2cnn3C2CCCC2)c(=O)[nH]1 + Cn1nnc2c(C(N)=O)ncn2c1=O,5.6,8.08,2.06,0.081,< 0.0316,92.3,81.4,70,70.6,72.7,32.3,95.3,94.7,84,86.7,71.3,45,95.4,93.2,66.7,"viability, T/C [16]: 68.7%; viability, T/C [17]: 37.9%; viability, T/C [18]: 36.8%; viability, T/C [19]: 58.4%; viability, T/C [20]: 47.4%; viability, T/C [21]: 35.1%; viability, T/C [22]: 33.7%; viability, T/C [23]: 10.6%; viability, T/C [24]: 19.9%; viability, T/C [25]: 33.6%; viability, T/C [26]: 21.7%; viability, T/C [27]: 18.9%; viability, T/C [28]: 16.3%; viability, T/C [29]: 10.4%; viability, T/C [30]: 7.54%"
[2H]c1nc(C)nc([2H])c1-c1cc(NC[C@@H](C)c2cccc3c(C(=O)NC)ccnc23)ncn1 + Cn1nnc2c(C(N)=O)ncn2c1=O,> 10,> 10,> 10,3.3,< 0.0316,97.9,96.7,93.5,95,101,88.9,108,113,98.7,99.7,95.3,103,106,105,85.5,"viability, T/C [16]: 103%; viability, T/C [17]: 65%; viability, T/C [18]: 82.6%; viability, T/C [19]: 61.5%; viability, T/C [20]: 53.1%; viability, T/C [21]: 49.8%; viability, T/C [22]: 47.5%; viability, T/C [23]: 51.6%; viability, T/C [24]: 18.4%; viability, T/C [25]: 33%; viability, T/C [26]: 21.6%; viability, T/C [27]: 15.9%; viability, T/C [28]: 13.6%; viability, T/C [29]: 11.7%; viability, T/C [30]: 8.11%"
